Measurements from patent US11951167B2, “Targeted liposomes” (GEORGETOWN UNIVERSITY, priority 2012, dated 2024).
Like-named read-outs stand apart in the source and are kept apart here.

Legend:
T98G cells [1] = settings: TMZ resistant T98G, XTT
Source text: The in vitro cell killing ability of the scL-TMZ was compared to free, unencapsulated TMZ in TMZ resistant human brain tumor cell line T98G using the XTT assay.

LN-18 cells = test: XTT sensitization of TMZ resistant cells by scL-p53; assay type: cell-based, human; settings: XTT 72 h after TMZ addition
Procedure: (§1) However, as only a subset of brain tumor patients respond to TMZ it was more critical to assess the ability of scL-p53 to sensitize TMZ resistant tumors to this chemotherapeutic agent. Thus, to assess the ability of scL delivered wtp53 to sensitize TMZ resistant brain tumor cells to this first-line chemotherapeutic agent, human brain tumor derived LN-18 and T98G cells were treated with TMZ alone, or the combination of TMZ plus scL-p53 (FIG. 23). As a control, cells were also treated with the combination of TMZ and the scL delivery system carrying the same vector used to construct the pSCMVp53 plasmid, but without the p53 insert (scL-vec). The cells were plated in a 96-well plate and treated 24 hours later with scL-p53 or scL-vec. 24 hours post-transfection, the TMZ was added in increasing concentrations. […] As shown in FIG. 23 with LN-18 cells, after transfection with scL-p53 these TMZ resistant cells are now responding to even very low doses of TMZ. […] With the T98G cells (FIG. 23), although not as responsive as to TMZ as LN-18 after treatment with scL-p53, these highly resistant cells are also sensitized to the killing effects of this drug.

T98G cells [2] = test: as above; assay type: cell-based, human; settings: XTT 72 h after TMZ addition
Procedure: as §1

[3] = system: U87MG-Luc xenograft brain tumors; test: Survival of mice with intracranial GBM tumors (Kaplan-Meier); assay type: in vivo, nude mice
Procedure: U87MG-Luc xenograft brain tumors were induced in nude mice as described above. 10 days post-inoculation, tumor-bearing animals were i.v. tail vein injected with TMZ alone (25.0 mg/kg/injection), scL-p53 alone (30 ug DNA/mouse/injection) (prepared as described in U.S. Pat. No. 7,780,882) or TMZ in combination with scL-p53. As a control, one group received PBS (vehicle). All i.v. injections were administered 2×/week to a total of 10 injections. The animals were monitored 2-3 times/week and euthanized when moribund. The gray bar in FIG. 27 indicates the duration of treatment.

[4] = system: intracranial U87MG-luc2 glioblastoma tumor xenografts; test: Efficacy in intracranial GBM xenografts (MRI, BLI, body weight, survival)
Procedure: Intra cranial GBM tumors were induced in 5-6 week old female athymic nude mice by stereotaxic inoculation of U87MG-luc2 cells that stably carry the luciferase gene. Seven to ten days post-inoculation, tumors were evaluated by bioluminescence using Xenogen IVIS in vivo imaging system (Caliper Life Sciences) and mice were evenly divided into treatment groups. Treatment was initiated on the day of randomization (day 0). Animals were injected intravenously (i.v.) via the tail vein with 5 mg/kg (per injection per mouse) of TMZ alone or TfRscFv-targeted TMZ cationic liposome complex (scL-TMZ). […] Mice were injected twice per week with each reagent for 5 weeks. Control animals (Vehicle) received Liposome only (no TMZ, no TfRscFv).
Assessment of in vivo efficacy: The in vivo response to treatment was evaluated based upon the changes in tumor growth, body weight change, and overall survival. Tumor growth was monitored by bioluminescence imaging (BLI) using Xenogen IVIS in vivo imaging system before, during, and after the treatments at the indicated date. […] The bioluminescence intensity of the brain tumors, a measure of tumor size/growth, was measured and compared between treatment groups. Half-way through treatment (after mice received 3 weeks of treatment with each reagent), all animals were scanned with magnetic resonance imaging (MRI) to evaluate the brain tumor. […] Tumor volume was calculated from the MRI scan and compared between treatment groups. Body weight change was monitored weekly. Overall survival was recorded and plotted by Kaplan-Meier method.
In a second experiment, different doses/number of injections per week of scL-TMZ, prepared as described herein, were compared. Groups of mice bearing U87MG-luc2 glioblastoma intracranial xenograft tumors were iv tail vein injected for 5 weeks with scL-TMZ at: 2.5 mg/kg one injection per week; 5 mg/kg one injection per week; or 5 mg/kg two injections per week and survival determined.

intracranial T98G tumors = test: Survival of mice with TMZ resistant intracranial GBM tumors; assay type: in vivo, athymic nude mice; settings: TMZ 100 mg/m^2 i.v. daily for 14 days; scL-p53 30 ug DNA twice weekly for 2 weeks
Procedure: Thus an experiment was performed to assess survival of mice bearing intracranial tumors derived from TMZ resistant human GBM cell line T98G. Athymic nude mice were intracranially inoculated with T98G human glioblastoma cell line. Ten days after the inoculation, animals were imaged by MRI and evenly divided into 3 groups. Treatment was started immediately after imaging. The animals were iv treated with 100 mg/m^2 of TMZ once a day for 14 consecutive days, iv administered scL-p53 (30 ug DNA/injection) (prepared as described in U.S. Pat. No. 7,780,882) twice weekly for 2 weeks, or the combination of both treatments. Survival was monitored. The number of mice surviving/group at day 14 is indicated for each group. […] In contrast, 4 of 5 mice that had received the combination therapy were still surviving.

U251 cells = test: XTT cell viability, liposome TMZ vs free TMZ; assay type: cell-based, human; settings: at 16-46.3 μM TMZ
Procedure: Studies were carried out to compare the efficacy of standard free (unencapsulated) TMZ; and unliganded TMZ-containing liposomes (Lip-TMZ) The Lip-TMZ was prepared as described above in Example 1 using a liposome concentration of 2 mM. The zeta potentials of the Lip-TMZ molecules ranged from 35.6-40.1 mV. The TMZ concentration used was varied from 1 to about 250 uM. The ratios of Liposome to TMZ was 0.5:1, 1:1 or 2:1 (molar ratio).
Human brain tumor derived U251 cells were plated in triplicate at 2×10^3 per well in a 96-well plate. Following overnight incubation, the medium was replaced with serum-free medium, overlaid with 100 μL of indicated concentrations of either Lip-TMZ, or free TMZ, incubated for 5 h, and then supplemented with fetal bovine serum. After incubation for an additional 91 h, cell viability was determined by the XTT assay as described previously (Rait A, Pirollo K F, Rait V, et al. Inhibitory effects of the combination of HER-2 antisense oligonucleotide and chemotherapeutic agents used for the treatment of human breast cancer. Cancer Gene Ther 2001; 8:728-39.). Formazan absorbance, which correlates to cell viability, was measured at 450 nm using a microplate reader (Bio-Rad, Hercules, Calif.).

[5] = 5 mg/kg i.v. twice per week for 5 weeks

Cn1nnc2c(C(N)=O)ncn2c1=O [TMZ, temozolomide]
IC50 (T98G cells [1]): > 1 mM
dose of TMZ until which no significant cell death is observed (LN-18 cells): ~1000 µM
IC50 (T98G cells [2]): ~2 mM
day by which all of the mice succumbed to their tumor ([3]; TMZ 25.0 mg/kg): ~155 days
Median Survival ([3]; TMZ 25.0 mg/kg, scL-p53 30 ug DNA/mouse, i.v. 2x/week, 10 injections): 112 days
Survival Prolongation (%) ([3]; ratio of the median survival of untreated GBM xenografts): 348%
long term survival (Kaplan-Meier) [4, 5]: extended the lifespan
time tumor growth was controlled (BLI) [4, 5]: ~2.5 weeks
tumor growth by MRI ([4]; 5 mg/kg i.v. twice per week, after 3 weeks (6 injections)): some tumor growth inhibition
mice surviving at day 14 (intracranial T98G tumors): a significant number of animals succumbed
cell killing effect (U251 cells): virtually no cell killing effect
